Measurements as given in patent publication US12233161B1, “Lipids and lipid nanoparticle formulations” (LONGUIDE BIOPHARMA CORPORATION, priority 2024, dated 2025).

Tests used:
[1] = system: mice; assay: In vivo delivery of FLuc-mRNA lipid nanoparticles in mice, in vivo imaging (IVIS)
How it was run: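 Mice (n=3) received about 75 μL FLuc-mRNA LNP per mouse intramuscularly (rectus femoris), intravenously (tail vein), intraperitoneally or subcutaneously (back). After injection, D-luciferin (200 μL, 15 mg/mL) was given i.p. 10-15 min before IVIS imaging.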

[2] = Particle size and PDI of nucleic acid lipid nanoparticle preparations by dynamic light scattering; type: physicochemical
How it was run: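 LNP solution (about 0.04 mg/mL mRNA before dilution) was diluted in ultrapure water and mixed by gentle pipetting. Particle size and PDI were then measured by dynamic light scattering.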

[3] = Potential characterization of nucleic acid lipid nanoparticle preparations; type: physicochemical
How it was run: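 Zeta potential was read on a Malvern ZEN3700 after diluting 20 μL lipid nanoparticle solution (about 0.04 mg/mL mRNA) into 780 μL ultrapure water. Alternatively, a 27.5 μL sample in 200 μL water was first sized by dynamic light scattering, then diluted with 600 μL more water for potential measurement.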

[4] = DMG-PEG2000:DSPC:Chol:Lipid 1.50:11.50:17.00:70.00, N/P 30, IV, liver
[5] = DMG-PEG2000:DSPC:Chol:Lipid 1.50:11.50:17.00:70.00, N/P 30, IV, lung
[6] = DMG-PEG2000:DSPC:Chol:Lipid 1.50:11.50:17.00:70.00, N/P 30, IV, spleen
[7] = DMG-PEG2000:DSPC:Chol:Lipid 1.50:11.50:37.00:50.00, N/P 30, IV, liver
[8] = DMG-PEG2000:DSPC:Chol:Lipid 1.50:11.50:37.00:50.00, N/P 30, IV, lung
[9] = DMG-PEG2000:DSPC:Chol:Lipid 1.50:11.50:37.00:50.00, N/P 30, IV, spleen
[10] = DMG-PEG2000:DSPC:Chol:Lipid 1.50:11.50:57.00:30.00, N/P 30, IV, liver
[11] = DMG-PEG2000:DSPC:Chol:Lipid 1.50:11.50:57.00:30.00, N/P 30, IV, lung
[12] = DMG-PEG2000:DSPC:Chol:Lipid 1.50:11.50:57.00:30.00, N/P 30, IV, spleen
[13] = DMG-PEG2000:DSPC:Chol:Lipid 2.50:11.50:51.00:35.00, N/P 18, IV, liver
[14] = DMG-PEG2000:DSPC:Chol:Lipid 2.50:11.50:51.00:35.00, N/P 18, IV, lung
[15] = DMG-PEG2000:DSPC:Chol:Lipid 2.50:11.50:51.00:35.00, N/P 18, IV, spleen
[16] = DMG-PEG2000:DSPC:Chol:Lipid 1.50:11.50:17.00:70.00, N/P 30, mRNA LNP
[17] = DMG-PEG2000:DSPC:Chol:Lipid 1.50:11.50:37.00:50.00, N/P 30, mRNA LNP
[18] = DMG-PEG2000:DSPC:Chol:Lipid 1.50:11.50:57.00:30.00, N/P 30, mRNA LNP
[19] = DMG-PEG2000:DSPC:Chol:Lipid 1.71:12.98:45.31:40.00, N/P 30, mRNA LNP
[20] = DMG-PEG2000:DSPC:Chol:Lipid 2.50:11.50:51.00:35.00, N/P 18, mRNA LNP
[21] = DMG-PEG2000:DSPC:Chol:compound 1.50:30.00:33.50:35.00, N/P 9
[22] = DMG-PEG2000:DSPC:Chol:compound 1.50:30.00:48.50:20.00, N/P 9
[23] = DMG-PEG2000:DSPC:Chol:compound 1.50:30.00:58.50:10.00, N/P 9
[24] = DMG-PEG2000:DSPC:Chol:compound 1.50:30.00:63.50:5.00, N/P 9

Which results are given for CCCCCCCCCCCCOC(=O)C(O)CN(CCCN(C)CCCN(CC(O)C(=O)OCCCCCCCCCCCC)CC(O)C(=O)OCCCCCCCCCCCC)CC(O)C(=O)OCCCCCCCCCCCC (centres unmarked) [Compound L0261]?
IVIS ([1]; DMG-PEG2000:DSPC:Chol:Lipid 1.50:11.50:17.00:70.00, N/P 30, IV, body): 4.64 × 10^7; % of organ targeting [1, 4]: 1.68%; IVIS [1, 4]: 1.65 × 10^6; % of organ targeting [1, 5]: 91.29%; IVIS [1, 5]: 8.93 × 10^7; % of organ targeting [1, 6]: 7.03%; IVIS [1, 6]: 6.88 × 10^6; IVIS ([1]; DMG-PEG2000:DSPC:Chol:Lipid 1.50:11.50:37.00:50.00, N/P 30, IV, body): 1.09 × 10^8; % of organ targeting [1, 7]: 30.20%; IVIS [1, 7]: 1.83 × 10^7; % of organ targeting [1, 8]: 30.87%; IVIS [1, 8]: 1.87 × 10^7; % of organ targeting [1, 9]: 38.93%; IVIS [1, 9]: 2.36 × 10^7; IVIS ([1]; DMG-PEG2000:DSPC:Chol:Lipid 1.50:11.50:57.00:30.00, N/P 30, IV, body): 5.88 × 10^7; % of organ targeting [1, 10]: 17.84%; IVIS [1, 10]: 1.20 × 10^7; % of organ targeting [1, 11]: 7.50%; IVIS [1, 11]: 5.06 × 10^6; % of organ targeting [1, 12]: 74.66%; IVIS [1, 12]: 5.03 × 10^7; IVIS ([1]; DMG-PEG2000:DSPC:Chol:Lipid 1.71:12.98:45.31:40.00, N/P 30, IM, whole body scan): 5.24 × 10^6; IVIS ([1]; DMG-PEG2000:DSPC:Chol:Lipid 2.50:11.50:51.00:35.00, N/P 18, IV, body): 4.72 × 10^7; % of organ targeting [1, 13]: 6.56%; IVIS [1, 13]: 3.81 × 10^6; % of organ targeting [1, 14]: 1.88%; IVIS [1, 14]: 1.09 × 10^6; % of organ targeting [1, 15]: 91.57%; IVIS [1, 15]: 5.33 × 10^7; IVIS ([1]; IV, body, DMG-PEG2000:DSPC:Chol:compound 1.50:30.00:33.50:35.00, N/P 9, Fluc-mRNA): 2.66E+07; IVIS ([1]; IV, body, DMG-PEG2000:DSPC:Chol:compound 1.50:30.00:48.50:20.00, N/P 9, Fluc-mRNA): 1.18E+07; IVIS ([1]; IV, body, DMG-PEG2000:DSPC:Chol:compound 1.50:30.00:58.50:10.00, N/P 9, Fluc-mRNA): 2.03E+06; IVIS ([1]; IV, body, DMG-PEG2000:DSPC:Chol:compound 1.50:30.00:63.50:5.00, N/P 9, Fluc-mRNA): 1.06E+06; % of organ targeting ([1]; IV, liver, DMG-PEG2000:DSPC:Chol:compound 1.50:30.00:33.50:35.00, N/P 9): 3.86%; IVIS ([1]; IV, liver, DMG-PEG2000:DSPC:Chol:compound 1.50:30.00:33.50:35.00, N/P 9, Fluc-mRNA): 1.00E+06; % of organ targeting ([1]; IV, liver, DMG-PEG2000:DSPC:Chol:compound 1.50:30.00:48.50:20.00, N/P 9): 8.55%; IVIS ([1]; IV, liver, DMG-PEG2000:DSPC:Chol:compound 1.50:30.00:48.50:20.00, N/P 9, Fluc-mRNA): 1.65E+06; % of organ targeting ([1]; IV, liver, DMG-PEG2000:DSPC:Chol:compound 1.50:30.00:58.50:10.00, N/P 9): 36.36%; IVIS ([1]; IV, liver, DMG-PEG2000:DSPC:Chol:compound 1.50:30.00:58.50:10.00, N/P 9, Fluc-mRNA): 7.14E+05; % of organ targeting ([1]; IV, liver, DMG-PEG2000:DSPC:Chol:compound 1.50:30.00:63.50:5.00, N/P 9): 26.05%; IVIS ([1]; IV, liver, DMG-PEG2000:DSPC:Chol:compound 1.50:30.00:63.50:5.00, N/P 9, Fluc-mRNA): 1.91E+05; % of organ targeting ([1]; IV, lung, DMG-PEG2000:DSPC:Chol:compound 1.50:30.00:33.50:35.00, N/P 9): 2.02%; IVIS ([1]; IV, lung, DMG-PEG2000:DSPC:Chol:compound 1.50:30.00:33.50:35.00, N/P 9, Fluc-mRNA): 5.23E+05; % of organ targeting ([1]; IV, lung, DMG-PEG2000:DSPC:Chol:compound 1.50:30.00:48.50:20.00, N/P 9): 4.05%; IVIS ([1]; IV, lung, DMG-PEG2000:DSPC:Chol:compound 1.50:30.00:48.50:20.00, N/P 9, Fluc-mRNA): 7.80E+05; % of organ targeting ([1]; IV, lung, DMG-PEG2000:DSPC:Chol:compound 1.50:30.00:58.50:10.00, N/P 9): 4.39%; IVIS ([1]; IV, lung, DMG-PEG2000:DSPC:Chol:compound 1.50:30.00:58.50:10.00, N/P 9, Fluc-mRNA): 8.62E+04; % of organ targeting ([1]; IV, lung, DMG-PEG2000:DSPC:Chol:compound 1.50:30.00:63.50:5.00, N/P 9): 7.91%; IVIS ([1]; IV, lung, DMG-PEG2000:DSPC:Chol:compound 1.50:30.00:63.50:5.00, N/P 9, Fluc-mRNA): 5.78E+04; % of organ targeting ([1]; IV, spleen, DMG-PEG2000:DSPC:Chol:compound 1.50:30.00:33.50:35.00, N/P 9): 94.12%; IVIS ([1]; IV, spleen, DMG-PEG2000:DSPC:Chol:compound 1.50:30.00:33.50:35.00, N/P 9, Fluc-mRNA): 2.44E+07; % of organ targeting ([1]; IV, spleen, DMG-PEG2000:DSPC:Chol:compound 1.50:30.00:48.50:20.00, N/P 9): 87.40%; IVIS ([1]; IV, spleen, DMG-PEG2000:DSPC:Chol:compound 1.50:30.00:48.50:20.00, N/P 9, Fluc-mRNA): 1.68E+07; % of organ targeting ([1]; IV, spleen, DMG-PEG2000:DSPC:Chol:compound 1.50:30.00:58.50:10.00, N/P 9): 59.25%; IVIS ([1]; IV, spleen, DMG-PEG2000:DSPC:Chol:compound 1.50:30.00:58.50:10.00, N/P 9, Fluc-mRNA): 1.16E+06; % of organ targeting ([1]; IV, spleen, DMG-PEG2000:DSPC:Chol:compound 1.50:30.00:63.50:5.00, N/P 9): 66.04%; IVIS ([1]; IV, spleen, DMG-PEG2000:DSPC:Chol:compound 1.50:30.00:63.50:5.00, N/P 9, Fluc-mRNA): 4.83E+05; tissue-targeting specificity (lung vs spleen depending on molar percentage of compound) ([1]; certain formulations, Table 2): strong tissue-targeting specificity; PDI [2, 16]: 0.17 ± 0.01; Particle size [2, 16]: 118.13 ± 0.40 nm; PDI [2, 17]: 0.20 ± 0.01; Particle size [2, 17]: 130.87 ± 0.87 nm; PDI [2, 18]: 0.13 ± 0.02; Particle size [2, 18]: 88.09 ± 0.52 nm; PDI [2, 19]: 0.24 ± 0.02; Particle size [2, 19]: 94.33 ± 1.52 nm; PDI [2, 20]: 0.17 ± 0.01; Particle size [2, 20]: 99.13 ± 0.78 nm; PDI [2, 21]: 0.20; Particle size (nm) [2, 21]: 141.40 nm; PDI [2, 22]: 0.21; Particle size (nm) [2, 22]: 107.23 nm; PDI [2, 23]: 0.21; Particle size (nm) [2, 23]: 136.30 nm; PDI [2, 24]: 0.16; Particle size (nm) [2, 24]: 128.87 nm; Zeta potential (mV) [3, 21]: 16.03 mV; Zeta potential (mV) [3, 22]: 14.53 mV; Zeta potential (mV) [3, 23]: 15.47 mV; Zeta potential (mV) [3, 24]: 16.57 mV
